Laboratory results as given in EP0719251B1, “BICYCLO (2.2.2) OCTANE DERIVATIVES CHOLECYSTOKININ AND/OR GASTRIN ANTAGONISTS” (JAMES BLACK FOUNDATION LIMITED, priority 1993, dated 1995).

Tests used:
gastrin = biological target: T1, gastrin (Rattus norvegicus, UniProt P30553); assay: gastrin antagonist activity in an immature rat stomach assay; settings: isolated immature rat stomach, cumulative pentagastrin dose-response curves, acid secretion; for Kb: read-out: Gastrin pKB (converted)
T1 construct: The stomach was excised and flushed with ca. 1 ml of unbuffered physiological saline solution; from tissue; host or cells: isolated whole stomach of immature rats (33-50 g, ca. 21 days old)
T1 sequence (P30553 1-452): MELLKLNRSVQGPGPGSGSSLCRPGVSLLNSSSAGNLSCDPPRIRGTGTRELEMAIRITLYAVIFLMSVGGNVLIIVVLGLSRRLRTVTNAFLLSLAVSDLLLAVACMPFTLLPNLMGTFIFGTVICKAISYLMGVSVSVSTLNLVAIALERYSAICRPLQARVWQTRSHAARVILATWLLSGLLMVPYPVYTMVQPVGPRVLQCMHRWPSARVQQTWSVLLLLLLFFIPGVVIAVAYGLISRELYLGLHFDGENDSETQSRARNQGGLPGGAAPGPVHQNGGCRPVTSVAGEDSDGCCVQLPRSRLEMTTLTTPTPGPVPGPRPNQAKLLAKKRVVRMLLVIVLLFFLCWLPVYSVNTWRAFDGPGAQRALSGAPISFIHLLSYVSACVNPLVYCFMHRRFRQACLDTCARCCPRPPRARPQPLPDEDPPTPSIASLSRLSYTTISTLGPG
In short: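 Isolated stomachs from immature rats (33-50 g, ca. 21 days) perfused at 1 ml min^-1 with O2-gassed unbuffered saline, perfusate pH monitored by electrode. After 120 min stabilisation, compounds added to serosal bath; cumulative pentagastrin dose-response curves begun 60 min later.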

CCKA = biological target: T2, CCKA (Cavia porcellus, UniProt Q63931); assay: CCKA binding assay in guinea-pig pancreas membranes; settings: [125I]-CCK8(S) 200pM; for Ki: containing 0.375 µM PD134,308, read-out: CCKA pKi (converted); for CCKA pKi: containing 0.375 µM PD134,308
T2 construct: The pancreatata were removed from male guinea-pigs (200-300g; Dunkin Hartley); from tissue; host or cells: pancreas membranes of male Dunkin Hartley guinea-pigs
T2 sequence (Q63931 1-430): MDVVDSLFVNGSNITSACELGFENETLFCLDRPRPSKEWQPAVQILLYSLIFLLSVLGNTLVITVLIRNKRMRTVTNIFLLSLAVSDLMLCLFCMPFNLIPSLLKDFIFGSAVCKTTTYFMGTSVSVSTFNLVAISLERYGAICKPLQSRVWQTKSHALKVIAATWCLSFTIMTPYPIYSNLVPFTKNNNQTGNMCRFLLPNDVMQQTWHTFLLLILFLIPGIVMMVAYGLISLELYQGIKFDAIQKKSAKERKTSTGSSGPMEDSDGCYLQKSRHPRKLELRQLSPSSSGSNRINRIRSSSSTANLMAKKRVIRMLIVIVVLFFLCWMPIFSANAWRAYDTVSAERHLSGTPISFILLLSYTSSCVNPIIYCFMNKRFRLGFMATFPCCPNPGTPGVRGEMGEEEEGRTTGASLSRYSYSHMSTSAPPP
In short: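 Competition binding of [125I]-CCK8(S) (200 pM in the added solution) to male guinea-pig pancreas membranes (1 mg/ml wet weight) containing 0.375 µM PD134,308, in HEPES buffer pH 7.2. Incubated 150 min at 21 ± 3°, then filtered. Bound radioactivity gamma-counted; non-specific binding defined with 100nM L-364,718.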

CCKB receptor = biological target: T3, CCKB receptor (Mus musculus, UniProt P56481); assay: radioligand binding assay at the CCKB receptor in mouse cortical membranes; settings: [125I]-CCK8S 200pM, 150 min at 21 ± 3°C, read-out: CCKB pKi (converted)
T3 construct: The whole brains from male mice (CD1 22-25g; Charles River) were removed; from tissue; host or cells: cerebral cortex membranes of male CD1 mice
T3 sequence (P56481 1-453): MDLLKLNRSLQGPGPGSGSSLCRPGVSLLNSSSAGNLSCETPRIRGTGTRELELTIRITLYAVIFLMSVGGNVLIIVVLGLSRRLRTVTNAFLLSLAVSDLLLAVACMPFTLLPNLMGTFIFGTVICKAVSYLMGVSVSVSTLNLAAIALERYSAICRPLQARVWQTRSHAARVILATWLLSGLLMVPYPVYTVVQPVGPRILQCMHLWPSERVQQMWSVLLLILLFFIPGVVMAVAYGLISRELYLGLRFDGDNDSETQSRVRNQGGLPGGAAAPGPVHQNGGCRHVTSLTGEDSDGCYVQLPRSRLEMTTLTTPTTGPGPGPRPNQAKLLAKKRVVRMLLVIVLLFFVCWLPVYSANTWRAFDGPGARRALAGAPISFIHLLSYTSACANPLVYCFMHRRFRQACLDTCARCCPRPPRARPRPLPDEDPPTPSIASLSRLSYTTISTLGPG
In short: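 Cortical membranes from male CD1 mice prepared in HEPES buffer (pH 7.2, with NaCl, KCl, MgCl2, EDTA, bacitracin) at 2 mg/ml wet weight. Binding stopped by rapid filtration over GF/B filters with ice-cold Tris-HCl washes. Bound radioactivity counted in a gamma-counter.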

Q: How did the Kb (gastrin) turn out when `O=C(O)c1cc(NC(=O)[C@H](Cc2ccccc2)NC(=O)C2C3c4ccccc4C(c4ccccc43)C2C(=O)NCc2ccc(Cl)c(Cl)c2)cc(C(=O)O)c1` (single isomer, unassigned) [Example 35, cis-7-(1S-(3,5-dicarboxyphenylaminocarbonyl)-2-phenylethylaminocarbonyl) -8-(3,4-dichlorophenyl-methylaminocarbonyl) -2,3,5,6-dibenzobicyclo[2.2.2]octane] was run?
A: 1000 nM

Q: What about the Ki (CCKA) of the same compound?
A: 1260 nM

Q: And the Ki (CCKB receptor)?
A: 158 nM

Q: `O=C(O)c1cccc(NC(=O)[C@H](Cc2ccccc2)NC(=O)C2C3c4ccccc4C(c4ccccc43)C2C(=O)NCC23CC4CC(CC(C4)C2)C3)c1` (single isomer, unassigned) [Example 40, cis-7-(1S-(3-carboxyphenylaminocarbonyl)-2-phenylethylaminocarbonyl) -8-(1-adamantanemethylaminocarbonyl)-2,3,5,6-dibenzobicyclo[2.2.2]octane] was tested. Which Kb (gastrin) did it give?
A: 2000 nM

Q: And the Ki (CCKA)?
A: 1000 nM

Q: What about the Ki (CCKB receptor) of the same compound?
A: 15.8 nM

Q: How did the “Gastrin pKB” value (gastrin; 60 min) turn out when `O=C(O)c1cccc(NC(=O)[C@H](Cc2ccccc2)NC(=O)C2C3c4ccccc4C(c4ccccc43)C2C(=O)NCC23CC4CC(CC(C4)C2)C3)c1` (single isomer, unassigned) [Example 41, cis-7-(1S-(3-carboxyphenylaminocarbonyl)-2-phenylethylaminocarbonyl)-8-(1-adamantanemethylaminocarbonyl)-2,3,5,6-dibenzobicyclo[2.2.2]octane] was run?
A: 5.7

Q: And the “CCKA pKi” value (CCKA)?
A: 6.0

Q: And the Ki (CCKB receptor)?
A: 158 nM

Q: With `O=C(O)c1cc(CNC(=O)[C@H](Cc2ccccc2)NC(=O)C2C3c4ccccc4C(c4ccccc43)C2C(=O)NCC23CC4CC(CC(C4)C2)C3)cc(C(=O)O)c1` (single isomer, unassigned) [Example 61, cis-7-(1S-(3,5-dicarboxyphenylmethylaminocarbonyl) -2-phenylethylaminocarbonyl) -8-(1-adamantanemethylaminocarbonyl)-2,3,5,6-dibenzobicyclo [2.2.2] octane] as the compound, how does the Kb (gastrin) read?
A: 39.8 nM

Q: What about the Ki (CCKA) of the same compound?
A: 2510 nM

Q: What about the Ki (CCKB receptor) of the same compound?
A: 31.6 nM

Q: What does the source list for `O=C(O)c1cc(CNC(=O)[C@H](Cc2ccccc2)NC(=O)C2C3c4ccccc4C(c4ccccc43)C2C(=O)NCC23CC4CC(CC(C4)C2)C3)cc(C(=O)O)c1` (single isomer, unassigned) [Example 62, cis-7-(1S-(3,5-dicarboxyphenylmethylaminocarbonyl)-2-phenylethylaminocarbonyl)-8-(1-adamantanemethyl-aminocarbonyl)-2,3,5,6-dibenzobicyclo[2.2 .2]octane]?
A: Kb (gastrin): 63.1 nM; CCKA pKi (CCKA): 5.6; Ki (CCKB receptor): 39.8 nM

Q: For `O=C(O)c1cc(NC(=O)[C@H](Cc2ccccc2)NC(=O)C2C3c4ccccc4C(c4ccccc43)C2C(=O)NCc2ccc3ccccc3c2)cc(C(=O)O)c1` (single isomer, unassigned) [Example 63, cis-7-(1S-(3,5-dicarboxyphenylaminocarbonyl) -2-phenylethylaminocarbonyl)-8-(2-naphthalenemethylaminocarbonyl) -2,3,5,6-dibenzobicyclo[2.2.2]octane], which Kb (gastrin) is on record?
A: 39.8 nM

Q: What about the Ki (CCKA) of the same compound?
A: 1580 nM

Q: What about the Ki (CCKB receptor) of the same compound?
A: 2.51 nM

Q: Which Kb (gastrin) does the source give for `O=C(O)c1cc(NC(=O)[C@H](Cc2ccccc2)NC(=O)C2C3c4ccccc4C(c4ccccc43)C2C(=O)NCc2ccc3ccccc3c2)cc(C(=O)O)c1` (single isomer, unassigned) [Example 64, cis-7-(1S-(3,5-dicarboxyphenylaminocarbonyl) -2-phenylethylaminocarbcnyl)-8-(2-naphthalenemethylaminocarbonyl)-2,3,5,6-dibenzobicyclo [2.2.2]octane] here?
A: 316 nM

Q: What about the “CCKA pKi” value (CCKA) of the same compound?
A: 5.8

Q: What about the Ki (CCKB receptor) of the same compound?
A: 5.01 nM

Q: `O=C(O)c1cc(NC(=O)[C@H](CC2CCCCC2)NC(=O)C2C3c4ccccc4C(c4ccccc43)C2C(=O)NCC23CC4CC(CC(C4)C2)C3)cc(C(=O)O)c1` (stereo partly drawn) [Example 5, cis-7-(1S-(3,5-dicarboxyphenylaminocarbonyl) -2-cyclohexylethylaminocarbonyl)-8-(1-adamantanemethylaminocarbonyl) -2,3,5,6-dibenzobicyclo[2.2.2]octane] was tested. Which Kb (gastrin) did it give?
A: 316 nM

Q: What about the Ki (CCKA) of the same compound?
A: 1000 nM

Q: And the Ki (CCKB receptor)?
A: 25.1 nM

Q: For `O=C(O)c1cc(NC(=O)[C@H](Cc2ccccc2Cl)NC(=O)C2C3c4ccccc4C(c4ccccc43)C2C(=O)NCC23CC4CC(CC(C4)C2)C3)cc(C(=O)O)c1` (stereo partly drawn) [Example 20, cis-7-(1S-(3,5-dicarboxyphenylaminocarbonyl)-2-(2-chlorophenyl) -ethylaminocarbonyl)-8-(1-adamantanemethylaminocarbonyl) -2,3,5,6-dibenzobicyclo [2.2.2] octane], which Kb (gastrin) is on record?
A: 6.31 nM

Q: What about the Ki (CCKA) of the same compound?
A: 2000 nM

Q: What about the Ki (CCKB receptor) of the same compound?
A: 10 nM

Q: Which results are given for `O=C(O)c1cc(NC(=O)[C@H](CCc2ccccc2)NC(=O)C2C3c4ccccc4C(c4ccccc43)C2C(=O)NCC23CC4CC(CC(C4)C2)C3)cc(C(=O)O)c1` (stereo partly drawn) [Example 36, cis-7-(1S-(3,5-dicarboxyphenylaminocarbonyl) -3-phenylpropylaminocarbonyl) -8-(1-adamantanemethyl-aminocarbonyl) -2,3,5,6-dibenzobicyclo[2.2.2]octane]?
A: Kb (gastrin): 31.6 nM; Ki (CCKA): 2000 nM; Ki (CCKB receptor): 63.1 nM

Q: Which Kb (gastrin) does the source give for `O=C(O)c1cc(NC(=O)[C@@H](CCc2ccccc2)NC(=O)C2C3c4ccccc4C(c4ccccc43)C2C(=O)NCC23CC4CC(CC(C4)C2)C3)cc(C(=O)O)c1` (stereo partly drawn) [Example 37, cis-7-(1R-(3,5-dicarboxyphenylaminocarbonyl) -3-phenylpropylaminocarbonyl)-8-(1-adamintanemethylaminocarbonyl)-2,3,5,6-dibenzobicyclo[2.2.2] octane] here?
A: 63.1 nM

Q: And the Ki (CCKA)?
A: 2000 nM

Q: What about the Ki (CCKB receptor) of the same compound?
A: 100 nM

Q: For `CN(C(=O)C1C2c3ccccc3C(c3ccccc32)C1C(=O)NCC12CC3CC(CC(C3)C1)C2)[C@@H](Cc1ccccc1)C(=O)Nc1cc(C(=O)O)cc(C(=O)O)c1` (stereo partly drawn) [Example 38, cis-7-(1S-(3,5-dicarboxyphenylaminocarbonyl) -2-phenylethyl-N (methyl)-aminocarbonyl) -8-(1-adamantanemethylaminocarbonyl) -2,3,5,6-dibenzobicyclo[2.2.2]octane], which Kb (gastrin) is on record?
A: 79.4 nM

Q: And the Ki (CCKA)?
A: 316 nM

Q: And the Ki (CCKB receptor)?
A: 50.1 nM

Q: For `O=C(O)c1cc(NC(=O)[C@@H](NC(=O)C2C3c4ccccc4C(c4ccccc43)C2C(=O)NCC23CC4CC(CC(C4)C2)C3)c2ccccc2)cc(C(=O)O)c1` (stereo partly drawn) [Example 39, cis-7-(1S-(3,5-dicarboxyphenylaminocarbonyl) -3-phenylmethylaminocarbonyl)-8-(1-adamantanemethylaminocarbonyl) -2,3,5,6-dibenzobicyclo[2.2.2]octane], which Kb (gastrin) is on record?
A: 398 nM

Q: And the Ki (CCKA)?
A: 2510 nM

Q: What about the Ki (CCKB receptor) of the same compound?
A: 501 nM
